Assay results: publication PMC8697972, “New Auranofin Analogs with Antibacterial Properties against Burkholderia Clinical Isolates” (Antibiotics, 2021)
Like-named read-outs stand apart in the source and are kept apart here. Marks after values point to notes of the source that are not given here.

Columns and labels:
B. cenocepacia K56-2 [1] = format: cell-based, Burkholderia cenocepacia; details: B. cenocepacia K56-2; CAMHB, 18 h, 37 °C
B. lata BCC6 = format: cell-based, Burkholderia lata; details: B. lata BCC6
B. contaminans MF16 = format: cell-based, Burkholderia contaminans; details: B. contaminans MF16
[2] = tested on: B. contaminans FFH-2050MA; format: cell-based, Burkholderia contaminans; details: B. contaminans FFH-2050MA
B. dolosa CEP021 = format: cell-based, Burkholderia dolosa; details: B. dolosa CEP021
B. multivorans ATCC17616 = format: cell-based, Burkholderia multivorans; details: B. multivorans ATCC17616
B. cenocepacia 140485 = format: cell-based, Burkholderia cenocepacia; details: B. cenocepacia 140485
B. ubonensis LMG 20358 = format: cell-based, Burkholderia ubonensis; details: B. ubonensis LMG 20358
B. contaminans FFH-4004 = format: cell-based, Burkholderia contaminans; details: B. contaminans FFH-4004
[3] = tested on: B. mallei China 5 (NBL 4); format: cell-based, Burkholderia mallei
[4] = tested on: B. mallei Ivan (NCTC 10230); format: cell-based, Burkholderia mallei
[5] = tested on: B. mallei China 7 (NBL 7); format: cell-based, Burkholderia mallei
B. pseudomallei 1710b = format: cell-based, Burkholderia pseudomallei
B. pseudomallei MSHR465a = format: cell-based, Burkholderia pseudomallei
[6] = tested on: B. pseudomallei HBPUB10134a; format: cell-based, Burkholderia pseudomallei
B. mallei = format: cell-based, Burkholderia mallei; details: range over B. mallei strains
B. pseudomallei = format: cell-based, Burkholderia pseudomallei
members of the Bcc = experiment: MIC, summary over Bcc panel; format: cell-based, Burkholderia cepacia complex; details: text summary over Bcc panel (most of the MICs)
Gram-negative bacteria = tested on: Gram-negative bacteria; parameters: method as in PMID 25831516; details: cited from earlier work
B. pseudomallei MSHR305 = format: cell-based, Burkholderia pseudomallei
[7] = tested on: Stenotrophomonas maltophilia DH57; format: cell-based
[8] = tested on: Stenotrophomonas maltophilia K279a; format: cell-based
Escherichia coli 120955 [9] = format: cell-based
[10] = tested on: Escherichia vulneris CEP511; format: cell-based
[11] = tested on: Klebsiella pneumoniae 120310; format: cell-based
[12] = tested on: Acinetobacter baumannii ATCC 17978; format: cell-based
[13] = tested on: Staphylococcus aureus ATCC 27700; format: cell-based
[14] = tested on: Staphylococcus aureus 107094; format: cell-based
[15] = tested on: Achromobacter xylosoxidans ACH03; format: cell-based
[16] = tested on: Burkholderia cenocepacia K56-2; experiment: MBC (minimum bactericidal concentration); format: cell-based; details: MBC determined from exponential time kill curve
[17] = tested on: Stenotrophomonas maltophilia K279a; experiment: MBC (minimum bactericidal concentration); format: cell-based
[18] = tested on: B. cenocepacia K56-2 persister cells; experiment: Time kill of persister cells generated with ciprofloxacin; format: cell-based, Burkholderia cenocepacia; details: for further reduction of ciprofloxacin-generated persister population: enriched persister population; for killing of ciprofloxacin-generated persister cells: in PBS, 3 h, MS-40S/MS-40 2× and 4× MIC, ciprofloxacin 5× MIC
B. cenocepacia K56-2 [19] = experiment: In vivo antibiotic activity in infected C. elegans; details: C. elegans infected with B. cenocepacia K56-2, data not shown
B. cenocepacia K56-2 [20] = experiment: In vivo antibiotic activity in infected G. mellonella; details: G. mellonella infected with B. cenocepacia K56-2, data not shown
B. cenocepacia K56-2 [21] = experiment: MIC in 50% human serum; format: cell-based, Burkholderia cenocepacia
human A549 cells = details: cited from earlier work
[22] = tested on: Galleria mellonella larvae; experiment: Galleria toxicity; details: for percent survival of Galleria larvae: 10 mg/kg
B. cenocepacia K56-2 [23] = experiment: Persister frequency assay; details: 24 h
[24] = tested on: Stenotrophomonas maltophilia DH57; experiment: MBC (minimum bactericidal concentration)
Escherichia coli 120955 [25] = experiment: MBC (minimum bactericidal concentration)
[26] = tested on: Escherichia vulneris CEP511; experiment: MBC (minimum bactericidal concentration)
[27] = tested on: Klebsiella pneumoniae 120310; experiment: MBC (minimum bactericidal concentration)
[28] = tested on: Acinetobacter baumannii ATCC 17978; experiment: MBC (minimum bactericidal concentration)
[29] = tested on: Staphylococcus aureus ATCC 27700; experiment: MBC (minimum bactericidal concentration)
[30] = tested on: Staphylococcus aureus 107094; experiment: MBC (minimum bactericidal concentration)
[31] = tested on: Achromobacter xylosoxidans ACH03; experiment: MBC (minimum bactericidal concentration)
[32] = tested on: Burkholderia cenocepacia K56-2; experiment: Time kill assays (exponential and stationary phase); details: for killing of stationary (non-replicating) phase cells / killing of exponential (replicating) phase cells: time kill, 1×, 2×, 6 h; for killing of stationary (non-replicating) phase cells: 4× MIC (DOX 4× MIC)
C. elegans DH26 = details: for Percent survival of C. elegans: 24 h

Structure (SMILES): CC(=O)OC[C@H]1O[C@@H]([S-])[C@H](OC(C)=O)[C@@H](OC(C)=O)[C@@H]1OC(C)=O.CCP(CC)CC.[Au+] [Auranofin]
- MIC (B. cenocepacia K56-2 [1]): >128 µg/mL
- MIC (B. lata BCC6): 128 µg/mL
- MIC (B. contaminans MF16): 128 µg/mL
- MIC [2]: 128 µg/mL
- MIC (B. dolosa CEP021): >128 µg/mL
- MIC (B. multivorans ATCC17616): 128 µg/mL
- MIC (B. cenocepacia 140485): 128 µg/mL
- MIC (B. ubonensis LMG 20358): >128 µg/mL
- MIC (B. contaminans FFH-4004): >128 µg/mL
- MIC [3]: 0.25 µg/mL
- MIC [4]: 0.5 µg/mL
- MIC [5]: 1 µg/mL
- MIC (B. pseudomallei 1710b): 64 µg/mL
- MIC (B. pseudomallei MSHR465a): 64 µg/mL
- MIC [6]: 64 µg/mL
- MICs against B. mallei (B. mallei): 0.25 to 1 µg/mL
- MIC in B. pseudomallei (B. pseudomallei): 64 µg/mL
- MICs against members of the Bcc (members of the Bcc): ≥ 128 µg/mL
- MICs against Gram-negative bacteria (Gram-negative bacteria): > 16 mg/L

Structure (SMILES): C[PH](C)(C)[Au][S]CCO [MS-40, 2-mercaptoethanolatotrimethylphosphine gold(I)]
- MIC (B. cenocepacia K56-2 [1]): 4 µg/mL
- MIC (B. lata BCC6): 8 µg/mL
- MIC (B. contaminans MF16): 8 µg/mL
- MIC [2]: 4 µg/mL
- MIC (B. dolosa CEP021): 16 µg/mL
- MIC (B. multivorans ATCC17616): 8 µg/mL
- MIC (B. cenocepacia 140485): 8 µg/mL
- MIC (B. ubonensis LMG 20358): 16 µg/mL
- MIC (B. contaminans FFH-4004): 8 µg/mL
- MIC [3]: 0.12 µg/mL
- MIC [4]: 0.12 µg/mL
- MIC [5]: 0.25 µg/mL
- MIC (B. pseudomallei 1710b): 4 µg/mL
- MIC (B. pseudomallei MSHR465a): 4 µg/mL
- MIC [6]: 4 µg/mL
- MIC (B. pseudomallei MSHR305): 2 µg/mL
- MIC [7]: 1 µg/mL
- MIC [8]: 2 µg/mL
- MIC (Escherichia coli 120955 [9]): 4 µg/mL
- MIC [10]: 2 µg/mL
- MIC [11]: 2 µg/mL
- MIC [12]: 2 µg/mL
- MIC [13]: 0.25 µg/mL
- MIC [14]: 0.25 µg/mL
- MIC [15]: 8 µg/mL
- MBC [16]: 8 * μg/mL
- MBC [17]: 2 µg/mL
- further reduction of ciprofloxacin-generated persister population [18]: 1–2 log10 CFU/mL
- killing of ciprofloxacin-generated persister cells [18]: killed to a concentration below/close to the limit of detection
- in vivo antibiotic activity (B. cenocepacia K56-2 [19]): did not observe in vivo antibiotic activity
- in vivo antibiotic activity (B. cenocepacia K56-2 [20]): did not observe in vivo antibiotic activity
- MIC in the presence of 50% human serum (B. cenocepacia K56-2 [21]): 128 µg/mL
- toxicity in human A549 cells compared with auranofin (human A549 cells): lower toxicity
- Galleria Survival ([22]; 1.0 mg/kg, 24 h): 100%
- Galleria Survival ([22]; 1.0 mg/kg, 48 h): 96.7%
- Galleria Survival ([22]; 1.0 mg/kg, 72 h): 96.7%
- Galleria Survival ([22]; 2.0 mg/kg, 24 h): 90.0%
- Galleria Survival ([22]; 2.0 mg/kg, 48 h): 80.0%
- Galleria Survival ([22]; 2.0 mg/kg, 72 h): 80.0%
- Galleria Survival ([22]; 5.0 mg/kg, 24 h): 96.7%
- Galleria Survival ([22]; 5.0 mg/kg, 48 h): 93.3%
- Galleria Survival ([22]; 5.0 mg/kg, 72 h): 90.0%
- percent survival of Galleria larvae [22]: ≥ 80%
- Galleria Survival ([22]; 10.0 mg/kg, 24 h): 90.0%
- Galleria Survival ([22]; 10.0 mg/kg, 48 h): 83.3%
- Galleria Survival ([22]; 10.0 mg/kg, 72 h): 80.0%
- persister frequency (percent survival) (B. cenocepacia K56-2 [23]; 5× MIC): No persisters
- persister frequency (percent survival) (B. cenocepacia K56-2 [23]; 10× MIC): No persisters
- MBC [24]: 4 µg/mL
- MBC (Escherichia coli 120955 [25]): 32 µg/mL
- MBC [26]: 2 µg/mL
- MBC [27]: 4 µg/mL
- MBC [28]: 4 µg/mL
- MBC [29]: 2 µg/mL
- MBC [30]: 1 µg/mL
- MBC [31]: 8 µg/mL
- killing of stationary (non-replicating) phase cells [32]: bactericidal
- killing of exponential (replicating) phase cells ([32]; 4× MIC): bactericidal

Structure (SMILES): CC(O)C[S][Au-][P+](C)(C)C (stereo not shown) [MS-40S]
- MIC (B. cenocepacia K56-2 [1]): 8 µg/mL
- MIC (B. lata BCC6): 8 µg/mL
- MIC (B. contaminans MF16): 8 µg/mL
- MIC [2]: 16 µg/mL
- MIC (B. dolosa CEP021): 32 µg/mL
- MIC (B. multivorans ATCC17616): 16 µg/mL
- MIC (B. cenocepacia 140485): 16 µg/mL
- MIC (B. ubonensis LMG 20358): 16 µg/mL
- MIC (B. contaminans FFH-4004): 16 µg/mL
- MIC [3]: 0.12 µg/mL
- MIC [4]: 0.12 µg/mL
- MIC [5]: 0.25 µg/mL
- MIC (B. pseudomallei 1710b): 4 µg/mL
- MIC (B. pseudomallei MSHR465a): 4 µg/mL
- MIC [6]: 2 µg/mL
- MIC [7]: 2 µg/mL
- MIC [8]: 2 µg/mL
- MIC (Escherichia coli 120955 [9]): 4 µg/mL
- MIC [10]: 4 µg/mL
- MIC [11]: 4 µg/mL
- MIC [12]: 2 µg/mL
- MIC [13]: 0.5 µg/mL
- MIC [14]: 0.25 µg/mL
- MIC [15]: 16 µg/mL
- MBC [16]: >32 * μg/mL
- MBC [17]: 8 µg/mL
- further reduction of ciprofloxacin-generated persister population [18]: 1–2 log10 CFU/mL
- killing of ciprofloxacin-generated persister cells [18]: killed to a concentration below/close to the limit of detection
- in vivo antibiotic activity (B. cenocepacia K56-2 [19]): did not observe in vivo antibiotic activity
- in vivo antibiotic activity (B. cenocepacia K56-2 [20]): did not observe in vivo antibiotic activity
- MIC in the presence of 50% human serum (B. cenocepacia K56-2 [21]): 128 µg/mL
- Percent survival of C. elegans (C. elegans DH26; 4 μg/mL): 100%
- Percent survival of C. elegans (C. elegans DH26; 8 μg/mL): 100%
- Percent survival of C. elegans (C. elegans DH26; 16 μg/mL): 100%
- Percent survival of C. elegans (C. elegans DH26; 32 μg/mL): 100%
- Percent survival of C. elegans (C. elegans DH26; 64 μg/mL): 100%
- Percent survival of C. elegans (C. elegans DH26; 128 μg/mL): 97.6%
- Percent survival of C. elegans (C. elegans DH26; 256 μg/mL): 85.7%
- Survival100/MIC Ratio (C. elegans DH26; highest concentration with 100 percent survival divided by the compound's MIC): 8
- Galleria Survival ([22]; 1.0 mg/kg, 24 h): 96.7%
- Galleria Survival ([22]; 1.0 mg/kg, 48 h): 86.7%
- Galleria Survival ([22]; 1.0 mg/kg, 72 h): 86.7%
- Galleria Survival ([22]; 2.0 mg/kg, 24 h): 83.3%
- Galleria Survival ([22]; 2.0 mg/kg, 48 h): 83.3%
- Galleria Survival ([22]; 2.0 mg/kg, 72 h): 83.3%
- Galleria Survival ([22]; 5.0 mg/kg, 24 h): 93.3%
- Galleria Survival ([22]; 5.0 mg/kg, 48 h): 86.7%
- Galleria Survival ([22]; 5.0 mg/kg, 72 h): 86.7%
- percent survival of Galleria larvae [22]: ≥ 80%
- Galleria Survival ([22]; 10.0 mg/kg, 24 h): 90.0%
- Galleria Survival ([22]; 10.0 mg/kg, 48 h): 76.7%
- Galleria Survival ([22]; 10.0 mg/kg, 72 h): 76.7%
- persister frequency (percent survival) (B. cenocepacia K56-2 [23]; 5× MIC): very low persister frequency
- persister frequency (percent survival) (B. cenocepacia K56-2 [23]; 10× MIC): no persisters
- MBC [24]: 8 µg/mL
- MBC (Escherichia coli 120955 [25]): 64 µg/mL
- MBC [26]: 4 µg/mL
- MBC [27]: 8 µg/mL
- MBC [28]: 8 µg/mL
- MBC [29]: 2 µg/mL
- MBC [30]: 1 µg/mL
- MBC [31]: 32 µg/mL
- reduction of the culture in time kill ([32]; 4× MIC, exponential phase): approximately three
- killing of stationary (non-replicating) phase cells [32]: bactericidal
- killing of exponential (replicating) phase cells ([32]; 4× MIC): bactericidal
